# Measurements taken from US12098179B2, “Antigenic peptides deriving from urocortin 3 and uses thereof for the diagnosis and treatment of type 1 diabetes” (INSERM (INSTITUT NATIONAL DE LA SANTÉ ET DE LA RECHERCHE …, priority 2018, dated 2024).
# Ends that are not written are not given here.
# Legend:
# [1] = tested on: circulating CD8^+ T cells; test: ex vivo combinatorial HLA-A2 MMr assay on PBMCs; format: cell-based, human
# Experimental: All peptides were synthesized at >90% purity (Synpeptides). HLA-A2 MMrs were produced as described (Leisner et al., 2008) and staining performed in the presence of 50 nM dasatinib (Lissina et al., 2009), as described (Culina et al., 2018). Briefly, cryopreserved PBMCs were magnetically depleted of CD8^− cells (StemCell Technologies), stained with the combinatorial MMr panels (Hadrup et al., 2009) and acquired using a FACSAria III cytometer.
# [2] = tested on: islet-infiltrating CD8^+ T cells of NOD mice; test: IFN-γ recall assay of islet-infiltrating cells against peptide-pulsed K^d+ L cells; format: cell-based, mouse; conditions: 12-16-week-old NOD females; for percentage of IFN-γ^+CD8^+ cells, median / percentage of IFN-γ^+CD8^+ cells, positive range: 6 h recall; for positive mice (IFN-γ^+CD8^+ cells >1.8%): positive / tested
# Description: Peptides predicted to be restricted by the murine MHC Class I K^d molecule were identified using prediction algorithms and scanning of the whole murine protein sequence. Peptides were first tested in pools, and positive pools subsequently deconvoluted for reactivity against individual peptides. To this end, islets were isolated from 12-16-week-old NOD mice by collagenase digestion and put in culture with recombinant human IL-2 (Proleukin, Novartis) for 5 days as described (Brezar et al, Eur J Immunol 2012). Cells exiting the islets were subsequently collected and subjected to recall assays against K^d+ L antigen-presenting cells pulsed with the indicated peptides for 6 h in the presence of brefeldin-A, followed by intracellular staining for IFN-γ. The TUM, Ins B15-23 and IGRP 206-214 peptides were included as negative control and positive controls, respectively.
# [3] = tested on: circulating CD8^+ T cells; test: ex vivo HLA-A3 multimer (MMr) staining of PBMCs; format: cell-based, human; conditions: HLA-A3^+ T1D and healthy donors
# Experimental: HLA-A3 MMrs were produced and used as described (Gonzalez-Duque, Cell Metab 2018). Each peptide-HLA-A3 complex was used at a final concentration of 8-27 nM and conjugated with fluorochrome-labeled streptavidin at a 1:4 ratio. The concentration of each fluorescent MMr was corrected for the variable staining index of each streptavidin, in order to obtain a distinct double-MMr^+ population for each fluorochrome pair. Compensations were set using fluorescence-minus-one samples (i.e. omitting one streptavidin at a time). The combinatorial MMr panel was first set up by staining HLA-A3^+ PBMCs with the same set of fluorescent streptavidin-labeled MMrs, all loaded with the Flu NP265-273 epitope, which yielded a similar MMr^+CD8^+ T-cell frequency for all the 15 MMr combination pairs.
# PBMCs were thawed at 37° C. and immediately diluted in pre-warmed AIM-V medium. Following centrifugation and one additional wash in AIM-V, PBMCs were counted and rested in the presence of 50 nM dasatinib for 30 min at 37° C. to prevent internalization of T-cell receptors before magnetic depletion of CD8^− cells (StemCell Technologies). Staining was performed for 20 min at 20° C. in […] PBS-dasatinib for 10^7 cells with combinatorial double-coded MMr panels, followed, without washing, by CD3-APC-H7 (RRID AB_1645475), CD8-PE-Cy7 (AB_396852), CD45RA-FITC (AB_395879), CCR7-BV421 (AB_2728119) monoclonal antibodies and Live/Dead Aqua (ThermoFisher) staining at 4° C. for 20 min. After one wash, cells were acquired using a FACSAria III cytometer. […] Flow cytometry data were analyzed with FlowJo v10 and Graphpad Prism 7.0 software. Cells were sequentially gated on small lymphocytes, singlets, live cells (Live/Dead Aqua l, CD3^+CD8^+ T cells and total PE^+, PE-CF594^+, APC^+, BV650^+, BV711^+ and BV786^+ MMr^+ T cells. Using Boolean operators, these latter gates allowed to selectively visualize each double-MMr^+ population by including only those events positive for the corresponding fluorochrome pair. For example, SCG3166-174 MMr^+ cells (PE^+PE-CF594^+) were visualized by gating on events that were PE^+PE-CF594^+APC^−BV650^−BV711^−BV786^−. Events negative for all MMr fluorochromes (PE^−PE-CF594^−APC^−BV650^−BV711^−BV786^−) were represented in the same PE/PE-CF-594 dot plot to set the double-MMr^+ gate. CD45RA and CCR7 staining was subsequently visualized by gating on these MMr^+ cells.
# [4] = tested on: pancreas-infiltrating cells of HLA-A2^+ T1D patients; test: in-situ HLA-A2 MMr staining on pancreas sections; format: cell-based, human; conditions: 2 HLA-A2^+ T1D cases (nPOD)
# Experimental: In-situ staining was performed as described (Culina et al., 2018). Unfixed, frozen sections were dried for 2 h, loaded with 1 μg of MMrs overnight at 4° C., washed gently with phosphate-buffered saline and fixed in 2% paraformaldehyde for 10 min. After a further wash, endogenous peroxidase activity was blocked with 0.3% H2O2. Sections were then incubated serially with rabbit anti-phycoerythrin, horseradish peroxidase-conjugated swine anti-rabbit and 3,3′-diaminobenzidine tetrahydrochloride substrate (ThermoFisher). After a final wash, sections were counterstained with hematoxylin, dehydrated via sequential passages in 95-100% ethanol and xylene, mounted and analyzed using a Nikon Eclipse Ni microscope with NIS-Elements Analysis D software v4.40.
# [5] = HLA-A2^+ healthy donors, screening
# [6] = HLA-A2^+ recent-onset T1D and healthy subjects (n=10/each)
substance,measurement,setting,value
KIF1A1347-1355: HLA-A2-restricted HLA-eluted β-cell peptide from Kinesin Family Member 1A (VLDTSVAYV),"cognate naïve CD8^+ T-cell repertoire (frequency 1-50/10^6, clustered MMr staining) validated",[1]; [5],validated
"LYDESCSSTL [Pcsk2 341-350, murine Pcsk2 peptide predicted to be restricted by K^d]",percentage of positive mice,[2],75%
same,"percentage of IFN-γ^+CD8^+ cells, median",[2],3.3%
same,"percentage of IFN-γ^+CD8^+ cells, positive range",[2],1.9-5.2%
same,positive mice (IFN-γ^+CD8^+ cells >1.8%),[2],6/8
"RLKPSLVGK [SCG5-009193-201, HLA-A3 restricted peptide from mRNA splice variant SCG5-009]",validation as HLA-A3-restricted CD8^+ T-cell epitope,[3],positive hits
KIF1A860-868: HLA-A3-restricted islet peptide from KIF1A (LLYPVPLVH),validation as HLA-A3-restricted CD8^+ T-cell epitope,[3],positive hits
KCNK16129-137: HLA-A2-restricted HLA-eluted β-cell peptide from KCNK16 (ALLGIPLNV),"cognate naïve CD8^+ T-cell repertoire (frequency 1-50/10^6, clustered MMr staining) validated",[1]; [5],validated
"PPI6-14: known preproinsulin β-cell epitope used as β-cell positive control (RLLPLLALL; UniProt P01308 6-14, looked up, fragment) [reference compound]",frequency of CD8^+ T cells recognizing the peptide,[1]; [5],1-50 /10^6 CD8^+ T cells
same,frequency of circulating CD8^+ T cells recognizing the peptide,"[1]; HLA-A2^+ recent-onset T1D and healthy subjects (n=10/each), similar in both",1-50 /10^6 CD8^+ T cells
PCSK230-38: HLA-A2-restricted HLA-eluted β-cell peptide from proprotein convertase 2 (FTNHFLVEL),"cognate naïve CD8^+ T-cell repertoire (frequency 1-50/10^6, clustered MMr staining) validated",[1]; [5],validated
SCG3166-174: HLA-A3-restricted islet peptide from secretogranin III (AVFDKIVSK),validation as HLA-A3-restricted CD8^+ T-cell epitope,[3],positive hits
ISL1276-284: HLA-A2-restricted HLA-eluted peptide from insulin gene enhancer protein ISL1 (GLQANPVEV),"cognate naïve CD8^+ T-cell repertoire (frequency 1-50/10^6, clustered MMr staining) validated",[1]; [5],validated
same,median frequency detected in peripheral blood,[1]; T1D patients,7.2×10^−6
same,in-situ MMr staining of pancreas sections,[4],MMr^+ cells could be detected
CHGA344-352: HLA-A2-restricted HLA-eluted β-cell peptide from chromogranin A (KMDQLAKEL),"cognate naïve CD8^+ T-cell repertoire (frequency 1-50/10^6, clustered MMr staining) validated",[1]; [5],validated
SCG5186-195: HLA-A2-restricted HLA-eluted β-cell peptide from SCG5 (7B2) (YLQGQRLDNV),"cognate naïve CD8^+ T-cell repertoire (frequency 1-50/10^6, clustered MMr staining) validated",[1]; [5],validated
PNMA250-58: HLA-A3-binding islet peptide not validated as CD8+ T-cell epitope (RLLGKIFRK),validation as HLA-A3-restricted CD8^+ T-cell epitope,[3],single exception
"VFSCLNTAL [Ucn3 32-40, murine Ucn3 peptide predicted to be restricted by K^d]",percentage of positive mice,[2],67%
same,"percentage of IFN-γ^+CD8^+ cells, median",[2],1.9%
same,"percentage of IFN-γ^+CD8^+ cells, positive range",[2],1.9-3.3%
same,positive mice (IFN-γ^+CD8^+ cells >1.8%),[2],8/12
FLSGAVNRL [SCG5-009186-194],"cognate naïve CD8^+ T-cell repertoire (frequency 1-50/10^6, clustered MMr staining) validated",[1]; [5],validated
same,frequency of MMr^+ cells (in words),[1]; [6],particularly high and clustered
"ZnT8186-184: positive control islet peptide (VAANIVLTV; UniProt Q8IWU4 186-194, looked up, fragment) [reference compound]",in-situ MMr staining of pancreas sections,[4],MMr^+ cells could be detected
"IGRP 206-214: positive control peptide in NOD recall assay (VYLKTNVFL; UniProt Q9Z186 206-214, looked up, fragment) [reference compound]",percentage of positive mice,[2],100%
same,"percentage of IFN-γ^+CD8^+ cells, median",[2],12.5%
same,"percentage of IFN-γ^+CD8^+ cells, positive range",[2],4.5-25.3%
same,positive mice (IFN-γ^+CD8^+ cells >1.8%),[2],13/13
"GYRDINEIDI [Pcsk2 109-118, murine Pcsk2 peptide predicted to be restricted by K^d]",percentage of positive mice,[2],50%
same,"percentage of IFN-γ^+CD8^+ cells, median",[2],1.8%
same,"percentage of IFN-γ^+CD8^+ cells, positive range",[2],1.9-4.3%
GQWEDASLLSK,validation as HLA-A3-restricted CD8^+ T-cell epitope,[3],positive hits
"TYFLLPLLL [Ucn3 5-13, murine Ucn3 peptide predicted to be restricted by K^d]",percentage of positive mice,[2],67%
same,"percentage of IFN-γ^+CD8^+ cells, median",[2],2.3%
same,"percentage of IFN-γ^+CD8^+ cells, positive range",[2],2.1-8.6%
same,positive mice (IFN-γ^+CD8^+ cells >1.8%),[2],8/12
MLMPVHFLL,"cognate naïve CD8^+ T-cell repertoire (frequency 1-50/10^6, clustered MMr staining) validated",[1]; [5],validated
same,frequency of MMr^+ cells (in words),[1]; [6],particularly high and clustered
"RYLEHVQAVI [Pcsk2 501-510, murine Pcsk2 peptide predicted to be restricted by K^d]",percentage of positive mice,[2],63%
same,"percentage of IFN-γ^+CD8^+ cells, median",[2],2.7%
same,"percentage of IFN-γ^+CD8^+ cells, positive range",[2],2.1-8.0%
same,positive mice (IFN-γ^+CD8^+ cells >1.8%),[2],5/8
